In the NIST ThermoML archive (doi:10.1016/j.jct.2008.01.024):

Columns and labels:
[1] = Liquid; for mass density: 298.15 K, 101.33 kPa; for vapor or sublimation pressure: Ebulliometric method (Recirculating still)
[2] = excess molar enthalpy (molar enthalpy of mixing); xn = mol fraction of the nth substance listed; details: 101 kPa, Liquid, Flow calorimetry

CCCCCCCl [1-chlorohexane]
Details | mass density [kg/m3]
[1] | 873.21

Details | vapor or sublimation pressure [kPa]
[1], 313.15 K | 2.857

CN1CCCC1=O [N-methylpyrrolidone]
Details | mass density [kg/m3]
[1] | 1028.55

CCCCCCCCCl [1-chlorooctane]
Details | mass density [kg/m3]
[1] | 868.98

ClCCCCCl [1,4-dichlorobutane] + CN1CCCC1=O
[2]
Details | excess molar enthalpy [kcal/mol]
298.15 K, x2 = 0.064 | -0.0301
298.15 K, x2 = 0.113 | -0.0535
298.15 K, x2 = 0.21 | -0.097
298.15 K, x2 = 0.308 | -0.131
298.15 K, x2 = 0.406 | -0.152
298.15 K, x2 = 0.505 | -0.162
298.15 K, x2 = 0.604 | -0.158
298.15 K, x2 = 0.703 | -0.139
298.15 K, x2 = 0.803 | -0.107
298.15 K, x2 = 0.903 | -0.0605
298.15 K, x2 = 0.954 | -0.032
308.15 K, x2 = 0.06 | -0.028
308.15 K, x2 = 0.109 | -0.0523
308.15 K, x2 = 0.207 | -0.0942
308.15 K, x2 = 0.305 | -0.125
308.15 K, x2 = 0.403 | -0.147
308.15 K, x2 = 0.501 | -0.156
308.15 K, x2 = 0.599 | -0.152
308.15 K, x2 = 0.698 | -0.135
308.15 K, x2 = 0.797 | -0.103
308.15 K, x2 = 0.895 | -0.0586
308.15 K, x2 = 0.945 | -0.0294
308.15 K, x2 = 0.964 | -0.0189

ClCCCl [1,2-dichloroethane]
Details | mass density [kg/m3]
[1] | 1245.6

Details | vapor or sublimation pressure [kPa]
[1], 313.15 K | 20.75

CCCCCCCl [1-chlorohexane] + CN1CCCC1=O
excess molar enthalpy [kcal/mol], [2]
Details | 298.15 K | 308.15 K
x2 = 0.062 | – | 0.0165
x2 = 0.064 | 0.0127 | –
x2 = 0.111 | – | 0.0349
x2 = 0.113 | 0.0287 | –
x2 = 0.208 | – | 0.0652
x2 = 0.21 | 0.0554 | –
x2 = 0.306 | – | 0.0891
x2 = 0.308 | 0.0774 | –
x2 = 0.404 | – | 0.104
x2 = 0.406 | 0.0913 | –
x2 = 0.502 | – | 0.112
x2 = 0.503 | 0.0994 | –
x2 = 0.601 | 0.1 | 0.112
x2 = 0.699 | 0.093 | 0.103
x2 = 0.797 | 0.0762 | –
x2 = 0.798 | – | 0.0841
x2 = 0.895 | 0.0466 | –
x2 = 0.897 | – | 0.0507
x2 = 0.944 | 0.0265 | –
x2 = 0.947 | – | 0.027
x2 = 0.967 | – | 0.0174

CCCCCl [1-chlorobutane] + CN1CCCC1=O
[2]
Details | excess molar enthalpy [kcal/mol]
298.15 K, x2 = 0.063 | 0.00454
298.15 K, x2 = 0.113 | 0.0098
298.15 K, x2 = 0.213 | 0.0194
298.15 K, x2 = 0.312 | 0.027
298.15 K, x2 = 0.411 | 0.0327
298.15 K, x2 = 0.51 | 0.0363
298.15 K, x2 = 0.608 | 0.037
298.15 K, x2 = 0.706 | 0.0347
298.15 K, x2 = 0.804 | 0.0284
298.15 K, x2 = 0.901 | 0.0167
298.15 K, x2 = 0.949 | 0.00908
308.15 K, x2 = 0.06 | 0.00813
308.15 K, x2 = 0.11 | 0.0153
308.15 K, x2 = 0.208 | 0.0275
308.15 K, x2 = 0.307 | 0.0363
308.15 K, x2 = 0.406 | 0.0421
308.15 K, x2 = 0.504 | 0.0457
308.15 K, x2 = 0.603 | 0.0457
308.15 K, x2 = 0.701 | 0.0421
308.15 K, x2 = 0.799 | 0.0339
308.15 K, x2 = 0.897 | 0.0198
308.15 K, x2 = 0.946 | 0.011
308.15 K, x2 = 0.965 | 0.00598

ClCCCCCCCl [1,6-dichlorohexane] + CN1CCCC1=O
excess molar enthalpy [kcal/mol], [2]
Details | 298.15 K | 308.15 K
x2 = 0.041 | – | -0.0055
x2 = 0.06 | – | -0.00789
x2 = 0.068 | -0.0108 | –
x2 = 0.109 | – | -0.0148
x2 = 0.116 | -0.0191 | –
x2 = 0.207 | – | -0.0244
x2 = 0.212 | -0.0311 | –
x2 = 0.305 | – | -0.0325
x2 = 0.309 | -0.0404 | –
x2 = 0.403 | – | -0.037
x2 = 0.405 | -0.0457 | –
x2 = 0.502 | – | -0.0387
x2 = 0.503 | -0.0478 | –
x2 = 0.6 | -0.0457 | -0.0363
x2 = 0.699 | -0.0394 | -0.032
x2 = 0.797 | -0.0294 | –
x2 = 0.799 | – | -0.0241
x2 = 0.896 | -0.0155 | –
x2 = 0.898 | – | -0.0127
x2 = 0.946 | -0.00765 | –
x2 = 0.948 | – | -0.00598
x2 = 0.968 | – | -0.00335

ClCCCl [1,2-dichloroethane] + CN1CCCC1=O
excess molar enthalpy [kcal/mol], [2]
Details | 298.15 K | 308.15 K
x2 = 0.057 | -0.0545 | –
x2 = 0.058 | – | -0.0578
x2 = 0.105 | -0.111 | –
x2 = 0.107 | – | -0.113
x2 = 0.203 | -0.198 | –
x2 = 0.207 | – | -0.202
x2 = 0.301 | -0.2624 | –
x2 = 0.307 | – | -0.266
x2 = 0.4 | -0.2949 | –
x2 = 0.407 | – | -0.2985
x2 = 0.5 | -0.3021 | –
x2 = 0.507 | – | -0.3043
x2 = 0.601 | -0.2825 | –
x2 = 0.607 | – | -0.2837
x2 = 0.702 | -0.238 | –
x2 = 0.708 | – | -0.238
x2 = 0.805 | -0.175 | –
x2 = 0.808 | – | -0.174
x2 = 0.909 | -0.0935 | -0.0927
x2 = 0.95 | – | -0.0523
x2 = 0.961 | -0.0433 | –
x2 = 0.97 | – | -0.0344

ClCCCCCl [1,4-dichlorobutane]
Details | mass density [kg/m3]
[1] | 1133.63

Details | vapor or sublimation pressure [kPa]
[1], 323.15 K | 2.205

ClCCCCCCCl [1,6-dichlorohexane]
Details | mass density [kg/m3]
[1] | 1063.7

CCCCCCCCCl [1-chlorooctane] + CN1CCCC1=O
[2]
Details | excess molar enthalpy [kcal/mol]
298.15 K, x2 = 0.073 | 0.0229
298.15 K, x2 = 0.121 | 0.0473
298.15 K, x2 = 0.217 | 0.0887
298.15 K, x2 = 0.314 | 0.12
298.15 K, x2 = 0.411 | 0.141
298.15 K, x2 = 0.507 | 0.152
298.15 K, x2 = 0.604 | 0.154
298.15 K, x2 = 0.701 | 0.143
298.15 K, x2 = 0.798 | 0.12
298.15 K, x2 = 0.895 | 0.076
298.15 K, x2 = 0.943 | 0.0423
308.15 K, x2 = 0.068 | 0.0268
308.15 K, x2 = 0.116 | 0.0533
308.15 K, x2 = 0.213 | 0.098
308.15 K, x2 = 0.309 | 0.132
308.15 K, x2 = 0.406 | 0.155
308.15 K, x2 = 0.504 | 0.167
308.15 K, x2 = 0.602 | 0.1678
308.15 K, x2 = 0.7 | 0.156
308.15 K, x2 = 0.799 | 0.129
308.15 K, x2 = 0.898 | 0.081
308.15 K, x2 = 0.948 | 0.0449
308.15 K, x2 = 0.968 | 0.0263

CCCCCl [1-chlorobutane]
Details | mass density [kg/m3]
[1] | 880.72

Details | vapor or sublimation pressure [kPa]
[1], 313.15 K | 25.72
